Results from ChEMBL document CHEMBL4411298, “Small molecule-drug conjugates: A novel strategy for cancer-targeted treatment” (Eur J Med Chem, 2019).
Values belong to the compound of their own block, whether it stands above or below them.

Experiments:
[1] = Half life in pH 7.4 buffer at 37 degC in presence of 8 mM DTT; assay type: physicochemical; conditions: pH 7.4 buffer with 8 mM DTT
[2] = Half life in pH 7.4 buffer at 37 degC in presence of GSH; assay type: physicochemical; conditions: pH 7.4 buffer with GSH
KB [3] = test: Growth inhibition of human KB cells; assay type: functional, cell-based
KB [4] = test: Antitumor activity against human KB cells xenografted in mouse assessed as complete tumor reversion incidence at 0.5 umol/kg; assay type: functional
Homo sapiens [5] = organism: Homo sapiens; test: Binding affinity to folate receptor in human KB cells after 1 hr in presence of [3H]-FA by scintillation counting assay relative to control; assay type: cell-based
LNCaP = test: Growth inhibition of PSMA-positive human LNCAP cells; assay type: functional, cell-based
[6] = Prodrug conversion assessed as half life for parent compound release at pH 5; assay type: ADME
Homo sapiens [7] = organism: Homo sapiens; test: Antitumor activity against NSCLC patients assessed as overall survival in presence of docetaxel in phase 2b clinical trial; assay type: functional
[8] = Drug metabolism assessed as half life for cleavage of disulfide bond at 1 mM pH 7.4 PBS in presence of DTT at 37 degC
Homo sapiens [9] = organism: Homo sapiens; test: Antitumor activity against NSCLC patients assessed as progression-free survival in presence of docetaxel in phase 2b clinical trial; assay type: functional
[10] = Drug metabolism assessed as half life for cleavage of disulfide bond at 1 mM pH 7.4 PBS in presence of 20 mM GSH at 37 degC
[11] = Drug metabolism assessed as half life for N-hydroxyethylvindesine release at pH 7.4
[12] = Drug metabolism assessed as half life for N-hydroxyethylvindesine release at pH 5

- half-life [1]: < 5 min
- half-life [2]: 45 min
Compound: CC[C@]1(O)C[C@H]2CN(CCc3c([nH]c4ccccc34)[C@@](C(=O)OC)(c3cc4c(cc3OC)N(C)[C@H]3[C@@](O)(C(=O)NNC(=O)OCc5ccc(SSC[C@H](NC(=O)[C@H](CC(=O)O)NC(=O)[C@H](CC(=O)O)NC(=O)[C@H](CCCNC(=N)N)NC(=O)[C@H](CC(=O)O)NC(=O)CC[C@H](NC(=O)c6ccc(NCc7cnc8nc(N)[nH]c(=O)c8n7)cc6)C(=O)O)C(=O)O)cc5)[C@H](O)[C@]5(CC)C=CCN6CC[C@]43[C@@H]65)C2)C1

Compound: CCCC(=O)OCN(C(=O)[C@@H](NC(=O)[C@H]1CCCCN1C)[C@@H](C)CC)[C@H](C[C@@H](OC(C)=O)c1nc(C(=O)N[C@@H](Cc2ccc(O)cc2)C[C@H](C)C(=O)NNC(=O)OCCSSC[C@H](NC(=O)[C@H](CC(=O)O)NC(=O)[C@H](CC(=O)O)NC(=O)[C@H](CCCNC(=N)N)NC(=O)[C@H](CC(=O)O)NC(=O)CC[C@H](NC(=O)c2ccc(NCc3cnc4nc(N)[nH]c(=O)c4n3)cc2)C(=O)O)C(=O)O)cs1)C(C)C
- IC50 (KB [3]): 7 nM
- Activity (KB [4]): 80%

Compound: CC[C@]1(O)C[C@H]2CN(CCc3c([nH]c4ccccc34)[C@@](C(=O)OC)(c3cc4c(cc3OC)N(C)[C@H]3[C@@](O)(C(=O)NNC(=O)OCCSSC[C@H](NC(=O)c5ccc(NCc6cnc7nc(N)[nH]c(=O)c7n6)cc5)C(=O)O)[C@H](O)[C@]5(CC)C=CCN6CC[C@]43[C@@H]65)C2)C1
- relative binding affinity (RBA) (Homo sapiens [5]): 0.046

Compound: CCCC(=O)OCN(C(=O)[C@@H](NC(=O)[C@H]1CCCCN1C)[C@@H](C)CC)[C@H](C[C@@H](OC(C)=O)c1nc(C(=O)N[C@@H](Cc2ccc(O)cc2)C[C@H](C)C(=O)NNC(=O)OCCSSC[C@H](NC(=O)[C@H](Cc2ccccc2)NC(=O)[C@H](CC(=O)O)NC(=O)CC[C@H](NC(=O)CC[C@@H](NC(=O)N[C@@H](CCC(=O)O)C(=O)O)C(=O)O)C(=O)O)C(=O)O)cs1)C(C)C
- IC50 (LNCaP): 3 nM

- half-life [1]: > 480 min
Compound: CC[C@]1(O)C[C@H]2CN(CCc3c([nH]c4ccccc34)[C@@](C(=O)OC)(c3cc4c(cc3OC)N(C)[C@H]3[C@@](O)(C(=O)NNC(=O)OC(C)C(C)SSC(C)(C)[C@H](NC(=O)[C@H](CC(=O)O)NC(=O)[C@H](CC(=O)O)NC(=O)[C@H](CCCNC(=N)N)NC(=O)[C@H](CC(=O)O)NC(=O)CC[C@H](NC(=O)c5ccc(NCc6cnc7nc(N)[nH]c(=O)c7n6)cc5)C(=O)O)C(=O)O)[C@H](O)[C@]5(CC)C=CCN6CC[C@]43[C@@H]65)C2)C1 (some centres undefined)

- half-life [1]: 30 min
Compound: CC[C@]1(O)C[C@H]2CN(CCc3c([nH]c4ccccc34)[C@@](C(=O)OC)(c3cc4c(cc3OC)N(C)[C@H]3[C@@](O)(C(=O)NNC(=O)OC(C)C(C)SSC[C@H](NC(=O)[C@H](CC(=O)O)NC(=O)[C@H](CC(=O)O)NC(=O)[C@H](CCCNC(=N)N)NC(=O)[C@H](CC(=O)O)NC(=O)CC[C@H](NC(=O)c5ccc(NCc6cnc7nc(N)[nH]c(=O)c7n6)cc5)C(=O)O)C(=O)O)[C@H](O)[C@]5(CC)C=CCN6CC[C@]43[C@@H]65)C2)C1 (some centres undefined)

Compound: CC[C@H](C)[C@H](NC(=O)[C@H]1CCCCN1C)C(=O)N(COC(=O)CC(C)C)[C@H](C[C@@H](OC(C)=O)c1nc(C(=O)N[C@@H](Cc2ccc(O)cc2)C[C@H](C)C(=O)NNC(=O)OCCSSC[C@H](NC(=O)[C@H](CC(=O)O)NC(=O)[C@H](CC(=O)O)NC(=O)[C@H](CCCNC(=N)N)NC(=O)[C@H](CC(=O)O)NC(=O)CC[C@H](NC(=O)c2ccc(NCc3cnc4nc(N)[nH]c(=O)c4n3)cc2)C(=O)O)C(=O)O)cs1)C(C)C
- Activity (KB [4]): 80%

Compound: CC[C@]1(O)C[C@H]2CN(CCc3c([nH]c4ccccc34)[C@@](C(=O)OC)(c3cc4c(cc3OC)N(C)[C@H]3[C@@](O)(C(=O)N/N=C(\C)c5ccc(N6C(=O)CC(SC[C@H](NC(=O)[C@H](CC(=O)O)NC(=O)[C@H](CC(=O)O)NC(=O)[C@H](CCCNC(=N)N)NC(=O)[C@H](CC(=O)O)NC(=O)CC[C@H](NC(=O)c7ccc(NCc8cnc9nc(N)[nH]c(=O)c9n8)cc7)C(=O)O)C(=O)O)C6=O)cc5)[C@H](O)[C@]5(CC)C=CCN6CC[C@]43[C@@H]65)C2)C1 (some centres undefined)
- t1/2 [6]: 330 min

- half-life [1]: 60 min
Compound: CC[C@]1(O)C[C@H]2CN(CCc3c([nH]c4ccccc34)[C@@](C(=O)OC)(c3cc4c(cc3OC)N(C)[C@H]3[C@@](O)(C(=O)NNC(=O)OCCSSC(C)(C)[C@H](NC(=O)[C@H](CC(=O)O)NC(=O)[C@H](CC(=O)O)NC(=O)[C@H](CCCNC(=N)N)NC(=O)[C@H](CC(=O)O)NC(=O)CC[C@H](NC(=O)c5ccc(NCc6cnc7nc(N)[nH]c(=O)c7n6)cc5)C(=O)O)C(=O)O)[C@H](O)[C@]5(CC)C=CCN6CC[C@]43[C@@H]65)C2)C1

Compound: Nc1nc(=O)c2nc(CNc3ccc(C(=O)N[C@@H](CCC(=O)O)C(=O)O)cc3)cnc2[nH]1
- relative binding affinity (RBA) (Homo sapiens [5]): 1

Compound: CC[C@]1(O)C[C@H]2CN(CCc3c([nH]c4ccccc34)[C@@](C(=O)OC)(c3cc4c(cc3OC)N(C)[C@H]3[C@@](O)(C(=O)NNC(=O)OCCSSC[C@H](NC(=O)[C@H](CC(=O)O)NC(=O)[C@H](CC(=O)O)NC(=O)[C@H](CCCNC(=N)N)NC(=O)[C@H](CC(=O)O)NC(=O)CC[C@H](NC(=O)c5ccc(NCc6cnc7nc(N)[nH]c(=O)c7n6)cc5)C(=O)O)C(=O)O)[C@H](O)[C@]5(CC)C=CCN6CC[C@]43[C@@H]65)C2)C1
- Survival (Homo sapiens [7]): 10.9 months
- T1/2 [8]: 5 min
- relative binding affinity (RBA) (Homo sapiens [5]): 0.47
- Survival (Homo sapiens [9]): 7.1 months
- T1/2 [10]: 60 min

Compound: CC[C@]1(O)C[C@H]2CN(CCc3c([nH]c4ccccc34)[C@@](C(=O)OC)(c3cc4c(cc3OC)N(C)[C@H]3[C@@](O)(C(=O)NCCOC(OC)c5ccc(OCCN6C(=O)CC(SC[C@H](NC(=O)[C@H](CC(=O)O)NC(=O)[C@H](CC(=O)O)NC(=O)[C@H](CCCNC(=N)N)NC(=O)[C@H](CC(=O)O)NC(=O)CC[C@H](NC(=O)c7ccc(NCc8cnc9nc(N)[nH]c(=O)c9n8)cc7)C(=O)O)C(=O)O)C6=O)cc5)[C@H](O)[C@]5(CC)C=CCN6CC[C@]43[C@@H]65)C2)C1 (some centres undefined)
- T1/2 [11]: 1320 min
- T1/2 [12]: 25 min
